Data: ChEMBL document CHEMBL4680314, “Discovery of potent glycogen synthase kinase 3/cholinesterase inhibitors with neuroprotection as potential therapeutic agent for Alzheimer's disease” (Bioorg Med Chem, 2021)
pIC50: −log10 of the molar value. Activity calls are given as the source filed them. The rule behind the calls is not given here.

Experiments:
in vitro = conditions: PAMPA
Description: Effective permeability of compound in PBS/EtOH buffer (7:3) at 25 ug/ml incubated for 18 hrs by PAMPA-BBB assay

Acetylcholinesterase = Acetylcholinesterase (Homo sapiens, UniProt P22303); assay: Inhibition of human recombinant AChE expressed in HEK293 cells using acetylthiocholine iodide as substrate incubated for 10 mins by Ellman's method; type: cell-based
Sequence of Acetylcholinesterase (P22303 whole entry): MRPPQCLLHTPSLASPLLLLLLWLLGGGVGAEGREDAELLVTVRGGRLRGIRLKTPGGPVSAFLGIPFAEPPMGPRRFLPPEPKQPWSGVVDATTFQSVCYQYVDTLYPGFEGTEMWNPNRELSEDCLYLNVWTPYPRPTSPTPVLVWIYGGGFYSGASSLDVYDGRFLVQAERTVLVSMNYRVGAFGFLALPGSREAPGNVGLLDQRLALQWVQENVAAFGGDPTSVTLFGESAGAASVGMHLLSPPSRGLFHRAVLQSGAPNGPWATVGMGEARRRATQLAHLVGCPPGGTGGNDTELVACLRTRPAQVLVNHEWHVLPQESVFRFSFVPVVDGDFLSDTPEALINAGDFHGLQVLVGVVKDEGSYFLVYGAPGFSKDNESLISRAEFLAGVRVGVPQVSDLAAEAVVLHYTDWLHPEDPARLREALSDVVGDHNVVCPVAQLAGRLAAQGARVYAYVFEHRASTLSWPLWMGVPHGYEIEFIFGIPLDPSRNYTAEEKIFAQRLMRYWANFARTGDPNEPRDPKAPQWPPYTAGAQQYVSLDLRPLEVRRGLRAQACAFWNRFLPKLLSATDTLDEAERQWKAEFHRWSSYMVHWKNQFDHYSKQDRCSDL

Cholinesterase = Cholinesterase (Homo sapiens, UniProt P06276); assay: Inhibition of human BChE using butyrylthiocholineiodide as substrate incubated for 10 mins by Ellman's method
Sequence of Cholinesterase (P06276 whole entry): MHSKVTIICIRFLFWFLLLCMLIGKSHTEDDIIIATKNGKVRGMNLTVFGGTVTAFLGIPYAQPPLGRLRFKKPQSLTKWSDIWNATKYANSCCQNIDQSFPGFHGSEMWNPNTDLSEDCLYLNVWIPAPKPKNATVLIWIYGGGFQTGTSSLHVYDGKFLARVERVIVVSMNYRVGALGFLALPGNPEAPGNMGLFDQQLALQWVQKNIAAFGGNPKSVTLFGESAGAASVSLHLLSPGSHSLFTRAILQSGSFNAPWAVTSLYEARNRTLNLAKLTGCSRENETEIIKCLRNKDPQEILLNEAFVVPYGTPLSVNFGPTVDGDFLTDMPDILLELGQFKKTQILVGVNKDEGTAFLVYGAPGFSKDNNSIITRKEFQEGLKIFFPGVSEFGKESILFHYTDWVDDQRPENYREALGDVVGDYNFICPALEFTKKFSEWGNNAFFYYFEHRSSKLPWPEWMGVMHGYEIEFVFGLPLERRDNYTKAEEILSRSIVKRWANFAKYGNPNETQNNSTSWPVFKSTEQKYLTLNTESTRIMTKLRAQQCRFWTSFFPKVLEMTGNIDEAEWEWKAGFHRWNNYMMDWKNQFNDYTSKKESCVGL

[1] = target: Glycogen synthase kinase-3 beta (Homo sapiens, UniProt P49841); assay: biochemical
Sequence of Glycogen synthase kinase-3 beta (P49841 whole entry): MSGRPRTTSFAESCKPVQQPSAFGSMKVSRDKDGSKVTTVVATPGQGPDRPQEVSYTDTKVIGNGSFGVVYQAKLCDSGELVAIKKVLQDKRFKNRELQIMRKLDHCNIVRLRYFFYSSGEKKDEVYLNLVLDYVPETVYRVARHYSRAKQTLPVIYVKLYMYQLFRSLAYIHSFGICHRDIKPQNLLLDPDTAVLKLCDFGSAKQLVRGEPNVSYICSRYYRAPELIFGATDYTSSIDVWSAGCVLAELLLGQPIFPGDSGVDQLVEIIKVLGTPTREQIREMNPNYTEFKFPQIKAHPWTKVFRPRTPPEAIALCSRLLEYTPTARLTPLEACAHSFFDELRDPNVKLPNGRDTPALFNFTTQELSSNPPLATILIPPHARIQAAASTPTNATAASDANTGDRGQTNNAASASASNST
Description: Inhibition of recombinant human N-terminal His6-tagged GSK3beta H350L mutant expressed in baculovirus infected Sf21 cells using prephosphorylated polypeptide as substrate incubated for 1 min followed by substrate addition and measured after 30 mins by Kinase-Glo luminescence assay

[2] = Tmax in Sprague-Dawley rat at 5 mg/kg, iv measured upto 24 hrs by LC-MS/MS analysis; type: ADME, organism-based; conditions: in vivo
BV-2 [3] = assay: Anti-inflammatory activity in mouse BV-2 cells assessed as reduction in LPS-induced IL-1beta expression at 4 uM incubated for 1 hr followed by LPS stimulation and measured after 24 hrs by immunofluorescence based laser confocal microscopy; type: functional, cell-based; conditions: time 25.0 hrs
[4] = AUC (0 to infinity) in Sprague-Dawley rat at 10 mg/kg, po by LC-MS/MS analysis; type: ADME, organism-based; design: route oral, time infinity, dose 10 mg/kg; conditions: in vivo
[5] = Half life in Sprague-Dawley rat at 5 mg/kg, iv measured upto 24 hrs by LC-MS/MS analysis; type: ADME, organism-based; conditions: in vivo
[6] = AUC (0 to 24 hrs) in Sprague-Dawley rat at 10 mg/kg, po measured upto 24 hrs by LC-MS/MS analysis; type: ADME, organism-based; design: route oral, dose 10 mg/kg, time <=24; conditions: in vivo
[7] = MRT (0 to t) in Sprague-Dawley rat at 5 mg/kg, iv measured upto 24 hrs by LC-MS/MS analysis; type: ADME, organism-based; conditions: in vivo
[8] = Volume of distribution in Sprague-Dawley rat at 10 mg/kg, po measured upto 24 hrs by LC-MS/MS analysis; type: ADME, organism-based; conditions: in vivo
[9] = Plasma concentration in ICR mouse at 15 mg/kg, po measured after 90 mins by LC-MS/MS analysis; type: ADME, organism-based
[10] = Volume of distribution in Sprague-Dawley rat at 5 mg/kg, iv measured upto 24 hrs by LC-MS/MS analysis; type: ADME, organism-based; conditions: in vivo
[11] = Clearance in Sprague-Dawley rat at 10 mg/kg, po measured upto 24 hrs by LC-MS/MS analysis; type: ADME, organism-based; conditions: in vivo
[12] = Cmax in Sprague-Dawley rat at 10 mg/kg, po measured upto 24 hrs by LC-MS/MS analysis; type: ADME, organism-based; design: route oral, dose 10 mg/kg, time <=24; conditions: in vivo
[13] = Cmax in Sprague-Dawley rat at 5 mg/kg, iv measured upto 24 hrs by LC-MS/MS analysis; type: ADME, organism-based; design: route intravenous, dose 5 mg/kg, time <=24; conditions: in vivo
[14] = Drug uptake in mouse BV-2 cells at 25 uM incubated for 1 hr measured per million cells by LC-MS/MS analysis; type: ADME, cell-based; conditions: bv-2, 1 h
[15] = Ratio of drug level in ICR mouse brain to blood at 15 mg/kg, po measured after 90 mins by LC-MS/MS analysis; type: ADME, organism-based; conditions: 1.5 h
[16] = Half life in Sprague-Dawley rat at 10 mg/kg, po measured upto 24 hrs by LC-MS/MS analysis; type: ADME, organism-based; conditions: in vivo
BV-2 [17] = assay: Anti-inflammatory activity in mouse BV-2 cells assessed as reduction in LPS-induced IL-1beta production incubated for 1 hr followed by LPS stimulation and measured after 24 hrs by ELISA; type: functional, cell-based; conditions: dose 2-8 µM, time 25.0 hrs
BV-2 [18] = assay: Anti-inflammatory activity in mouse BV-2 cells assessed as reduction in LPS-induced ROS production at 3 uM incubated for 1 hr followed by LPS stimulation and measured after 24 hrs by DCFH-DA staining based inverted fluorescence microscopy; type: functional, cell-based; conditions: time 25.0 hrs
[19] = AUC (0 to infinity) in Sprague-Dawley rat at 5 mg/kg, iv by LC-MS/MS analysis; type: ADME, organism-based; design: route intravenous, dose 5 mg/kg; conditions: in vivo
[20] = Oral bioavailability in Sprague-Dawley rat at 10 mg/kg measured upto 24 hrs by LC-MS/MS analysis; type: ADME, organism-based; conditions: in vivo
BV-2 [21] = assay: Cytotoxicity against mouse BV-2 cells assessed as effect on cell morphology; type: cell-based
BV-2 [22] = assay: Anti-inflammatory activity in mouse BV-2 cells assessed as reduction in LPS-induced TNFalpha production incubated for 1 hr followed by LPS stimulation and measured after 24 hrs by ELISA; type: functional, cell-based; conditions: dose 2-8 µM, time 25.0 hrs
BV-2 [23] = assay: Anti-inflammatory activity in mouse BV-2 cells assessed as reduction in LPS-induced TNFalpha expression at 4 uM incubated for 1 hr followed by LPS stimulation and measured after 24 hrs by immunofluorescence based laser confocal microscopy; type: functional, cell-based; conditions: time 25.0 hrs
[24] = Tmax in Sprague-Dawley rat at 10 mg/kg, po measured upto 24 hrs by LC-MS/MS analysis; type: ADME, organism-based; conditions: in vivo
[25] = Toxicity in ICR mouse assessed as reduction in body weight at 15 mg/kg, po; type: organism-based; conditions: in vivo
[26] = MRT (0 to t) in Sprague-Dawley rat at 10 mg/kg, po measured upto 24 hrs by LC-MS/MS analysis; type: ADME, organism-based; conditions: in vivo
[27] = Toxicity in ICR mouse model of scopolamine-induced cognitive dysfunction assessed as effect on locomotor activity by measuring effect on swimming speed at 15 mg/kg, po by Morris water maze test; type: organism-based; conditions: in vivo
[28] = Clearance in Sprague-Dawley rat at 5 mg/kg, iv measured upto 24 hrs by LC-MS/MS analysis; type: ADME, organism-based; conditions: in vivo
[29] = AUC (0 to 24 hrs) in Sprague-Dawley rat at 5 mg/kg, iv measured upto 24 hrs by LC-MS/MS analysis; type: ADME, organism-based; design: route intravenous, dose 5 mg/kg, time <=24; conditions: in vivo

Compound: CCn1cc(C(=O)O)c(=O)c2ccc(-n3cccc3)cc21
- Papp at 18 h, 25 ug/ml (in vitro): 25 nm/s

Compound: CNC(=O)c1sc(-c2ccnc(NC(=O)C3CC3)c2)nc1OCC1CCN(Cc2ccc(Br)cc2)CC1
- pIC50 (Acetylcholinesterase): < 3.00
- pIC50 (Cholinesterase): 4.17
- pIC50 [1]: 7.59

Compound: CNC(=O)c1sc(-c2ccnc(NC(=O)C3CC3)c2)nc1OCC1CCN(Cc2ccc(F)c(F)c2)CC1
- pIC50 (Acetylcholinesterase): 4.10
- pIC50 (Cholinesterase): 4.70
- pIC50 [1]: 7.21

Compound: NC(=O)c1sc(-c2ccnc(NC(=O)C3CC3)c2)nc1OCCCC1CCN(Cc2ccccc2)CC1
- Tmax [2]: 4.98 min
- Activity (BV-2 [3]): Active
- Papp at 18 h, 25 ug/ml (in vitro): 109 nm/s
- AUC(0-inf) [4]: 0.453 µg·h/mL
- half-life [5]: 6.3 h
- pIC50 (Acetylcholinesterase): 6.42
- AUC(0-t) [6]: 0.441 µg·h/mL
- MRT last at 24 h [7]: 5.1 h
- Vd [8]: 77 L/kg
- concentration at 1.5 h [9]: 0.0849 µg/mL
- Vd [10]: 30.7 L/kg
- CL/F [11]: 17.8 L/h/kg
- Cmax [12]: 0.0441 µg/mL
- Cmax [13]: 0.771 µg/mL
- pIC50 (Cholinesterase): 4.69
- Drug uptake [14]: 103 ng
- Ratio [15]: 9.2 ng/kg
- half-life [16]: 3.9 h
- Activity (BV-2 [17]): Dose-dependent effect
- Activity (BV-2 [18]): Active
- AUC(0-inf) [19]: 1.76 µg·h/mL
- bioavailability [20]: 15.1%
- Activity (BV-2 [21]): Non-Toxic
- Activity (BV-2 [22]): Dose-dependent effect
- Activity (BV-2 [23]): Active
- Tmax [24]: 8 h
- Activity [25]: Non-Toxic
- pIC50 [1]: 8.10
- MRT last at 24 h [26]: 9.2 h
- Activity [27]: Non-Toxic
- clearance [28]: 3.01 L/h/kg
- AUC(0-t) [29]: 1.68 µg·h/mL

Compound: NC(=O)c1sc(-c2ccnc(NC(=O)C3CC3)c2)nc1OCCC1CCN(Cc2ccccn2)CC1
- pIC50 (Acetylcholinesterase): 5.18
- pIC50 (Cholinesterase): 4.06
- pIC50 [1]: 6.71

Compound: CNC(=O)c1sc(-c2ccnc(NC(=O)C3CC3)c2)nc1OCC1CCN(Cc2ccccc2)CC1
- pIC50 (Acetylcholinesterase): 5.10
- pIC50 (Cholinesterase): 4.85
- pIC50 [1]: 7.80

Compound: CNC(=O)c1sc(-c2ccnc(NC(=O)C3CC3)c2)nc1OCC1CCN(Cc2cccc(Br)c2)CC1
- pIC50 (Acetylcholinesterase): 3.40
- pIC50 (Cholinesterase): 4.82
- pIC50 [1]: 7.31

Compound: NC(=O)c1sc(-c2ccnc(NC(=O)C3CC3)c2)nc1OCCC1CCN(Cc2cccc(F)c2)CC1
- Papp at 18 h, 25 ug/ml (in vitro): 70 nm/s
- pIC50 (Acetylcholinesterase): 5.33
- pIC50 (Cholinesterase): 3.53
- pIC50 [1]: 7.59

Compound: NC(=O)c1sc(-c2ccnc(NC(=O)C3CC3)c2)nc1OCCC1CCN(Cc2ccc(F)c(F)c2)CC1
- pIC50 (Acetylcholinesterase): 4.37
- pIC50 (Cholinesterase): 5.14
- pIC50 [1]: 8.00

Compound: NC(=O)c1sc(-c2ccnc(NC(=O)C3CC3)c2)nc1OCCC1CCN(Cc2c(F)cccc2F)CC1
- Papp at 18 h, 25 ug/ml (in vitro): 68 nm/s
- pIC50 (Acetylcholinesterase): 4.71
- pIC50 (Cholinesterase): 5.72
- pIC50 [1]: 8.30

Compound: NC(=O)c1sc(-c2ccnc(NC(=O)C3CC3)c2)nc1O
- pIC50 (Acetylcholinesterase): < 3.00
- pIC50 (Cholinesterase): < 3.00
- pIC50 [1]: 7.96

Compound: NC(=O)c1sc(-c2ccnc(NC(=O)C3CC3)c2)nc1OCCC1CCN(Cc2ccccc2)CC1
- Papp at 18 h, 25 ug/ml (in vitro): 88 nm/s
- pIC50 (Acetylcholinesterase): 6.14
- pIC50 (Cholinesterase): 4.82
- pIC50 [1]: 7.72
